# Test results taken from paper PMC4119213 (Translational Psychiatry, 2014).
# Assays:
# [1] = biological target: rKOR (rat κ-opioid receptor) (Rattus norvegicus, UniProt P34975); assay: BRET CAMYEL cAMP assay, HEK-293T; assay type: cell-based
# [2] = biological target: hDOR (human δ-opioid receptor) (Homo sapiens, UniProt P41143); assay: radioligand displacement
# [3] = biological target: KOR (human κ-opioid receptor, PDSP binding) (Homo sapiens, UniProt P41145); assay: radioligand displacement; conditions: n=4
# [4] = biological target: mDOR (mouse δ-opioid receptor) (Mus musculus, UniProt P32300); assay: BRET G-protein activation, HEK-293T; assay type: cell-based
# [5] = biological target: hMOR (human μ-opioid receptor) (Homo sapiens, UniProt P35372); assay: radioligand displacement
# Chain of hMOR (human μ-opioid receptor) (P35372 whole entry): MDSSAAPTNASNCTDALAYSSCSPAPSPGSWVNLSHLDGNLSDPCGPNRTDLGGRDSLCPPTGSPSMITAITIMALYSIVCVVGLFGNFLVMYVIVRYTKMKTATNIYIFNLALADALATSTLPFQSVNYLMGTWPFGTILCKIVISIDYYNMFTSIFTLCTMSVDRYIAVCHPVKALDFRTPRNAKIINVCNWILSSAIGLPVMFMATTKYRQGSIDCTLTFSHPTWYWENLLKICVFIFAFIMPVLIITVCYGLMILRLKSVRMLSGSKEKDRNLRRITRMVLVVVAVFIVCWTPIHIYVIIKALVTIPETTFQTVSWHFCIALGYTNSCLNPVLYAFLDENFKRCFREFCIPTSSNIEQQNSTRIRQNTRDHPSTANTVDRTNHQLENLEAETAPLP
# Chain of rKOR (rat κ-opioid receptor) (P34975 whole entry): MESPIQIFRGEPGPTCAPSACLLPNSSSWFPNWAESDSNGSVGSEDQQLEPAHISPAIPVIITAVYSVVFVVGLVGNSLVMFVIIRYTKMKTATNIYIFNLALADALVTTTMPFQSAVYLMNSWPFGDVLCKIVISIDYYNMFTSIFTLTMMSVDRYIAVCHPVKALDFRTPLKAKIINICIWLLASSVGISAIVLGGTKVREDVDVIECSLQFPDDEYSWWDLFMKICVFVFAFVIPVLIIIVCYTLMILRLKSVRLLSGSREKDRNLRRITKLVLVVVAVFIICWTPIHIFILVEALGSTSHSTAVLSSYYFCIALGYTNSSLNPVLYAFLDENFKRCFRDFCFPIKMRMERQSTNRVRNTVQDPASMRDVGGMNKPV
# Chain of hDOR (human δ-opioid receptor) (P41143 whole entry): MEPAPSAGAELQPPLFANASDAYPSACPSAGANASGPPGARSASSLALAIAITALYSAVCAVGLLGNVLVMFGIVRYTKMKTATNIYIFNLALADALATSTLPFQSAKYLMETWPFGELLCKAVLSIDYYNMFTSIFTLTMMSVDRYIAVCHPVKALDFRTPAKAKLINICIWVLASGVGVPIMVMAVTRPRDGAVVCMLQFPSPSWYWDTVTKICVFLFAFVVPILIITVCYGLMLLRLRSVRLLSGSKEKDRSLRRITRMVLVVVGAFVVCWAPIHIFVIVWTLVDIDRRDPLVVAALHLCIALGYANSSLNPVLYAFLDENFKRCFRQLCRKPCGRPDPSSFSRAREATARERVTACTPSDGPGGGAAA
# Chain of mDOR (mouse δ-opioid receptor) (P32300 whole entry): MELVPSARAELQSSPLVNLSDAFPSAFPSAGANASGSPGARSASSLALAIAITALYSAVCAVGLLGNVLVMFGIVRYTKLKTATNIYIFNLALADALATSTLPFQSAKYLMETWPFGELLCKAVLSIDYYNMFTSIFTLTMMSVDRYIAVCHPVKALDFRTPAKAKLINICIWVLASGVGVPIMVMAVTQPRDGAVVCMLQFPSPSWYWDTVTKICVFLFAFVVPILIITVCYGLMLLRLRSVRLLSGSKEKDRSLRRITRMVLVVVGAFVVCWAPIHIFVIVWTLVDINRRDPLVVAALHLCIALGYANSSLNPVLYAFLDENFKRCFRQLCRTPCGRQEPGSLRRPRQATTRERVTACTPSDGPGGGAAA
# Chain of KOR (human κ-opioid receptor, PDSP binding) (P41145 whole entry): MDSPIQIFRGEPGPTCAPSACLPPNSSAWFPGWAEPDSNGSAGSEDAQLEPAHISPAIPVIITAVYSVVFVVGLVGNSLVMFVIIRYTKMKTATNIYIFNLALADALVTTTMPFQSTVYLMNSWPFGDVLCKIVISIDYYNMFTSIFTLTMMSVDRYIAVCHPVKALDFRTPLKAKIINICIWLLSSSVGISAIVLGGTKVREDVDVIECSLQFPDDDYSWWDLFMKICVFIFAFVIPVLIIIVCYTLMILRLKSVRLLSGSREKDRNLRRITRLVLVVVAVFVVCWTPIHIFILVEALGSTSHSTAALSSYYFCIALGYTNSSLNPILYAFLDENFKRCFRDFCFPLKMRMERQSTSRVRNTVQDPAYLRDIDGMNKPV
SMILES,IC50 [1] [nM],Ki [2] [nM],Ki [3],EC50 [4] [nM],Ki [5] [nM]
Oc1ccc2c3c1O[C@H]1c4[nH]c5c(c4C[C@@]4(O)[C@@H](C2)N(CC2CC2)CC[C@]314)C[C@@]1(O)[C@H]2Cc3ccc(O)c4c3[C@@]1(CCN2CC1CC1)[C@H]5O4 [nor-binaltorphimine],28.1 ± 27.2,,,,
CN1c2ccccc2C(NCCCCCCC(=O)O)c2ccc(Cl)cc2S1(=O)=O (centres unmarked) [tianeptine],,> 10000,"Kis were determined at MOR, as well as at DOR and KOR",14500 ± 6600,383 ± 183
